Measurements from patent publication US20260151375A1, “CDK2 INHIBITORS AND METHODS OF USING THE SAME” (Cedilla Therapeutics, Inc., priority 2022, published 2026).
Like-named read-outs stand apart in the source and are kept apart here.

Legend:
CDK2/Cyclin E1 [1] = target: T1, CDK2/Cyclin E1 (Homo sapiens, UniProt P24941); assay: ADPGLO (CDK2/E1-37 C), ADP-Glo Luminescent Kinase Assay; format: biochemical; details: 0.18 nM CDK2/Cyclin E1, 100 μM ATP, Histone H1, 37° C.
T1 construct: purchased 14-475
Procedure: Inhibition of CDK2/Cyclin E1 activity by the presence of small molecules was evaluated using ADP-Glo Luminescent Kinase Assay (Promega). Activated CDK2/Cyclin E1 was incubated with its substrate Histone H1 (SignalChem H10-54N) in the kinase reaction buffer (100 μM ATP, 50 mM HEPES pH 7.5, 10 mM MgCl2, 1 mM EDTA, 2 mM DTT, 0.01% Brij35, 0.5 mg/mL BSA). Luminescence was recorded with an Envision plate reader (PerkinElmer).
Dose titrations of inhibitors in 100% DMSO were combined with 0.36 nM CDK2/Cyclin E1 in reaction buffer. The mixtures were incubated for 60 minutes at 37° C. before the addition of ATP and Histone H1 substrate to initiate the kinase reaction. The final conditions were 0.18 nM CDK2/Cyclin E1, 100 μM ATP, and 1.5 μM Histone H1. The reactions were incubated at 37° C. for 90 minutes before being stopped with the addition of ADP-Glo reagent. This mixture was incubated at room temperature for 60 minutes before Kinase Detection Solution is added to generate luminescence. The stopped reactions were analyzed on an Envision plate reader. The conversion ratios were normalized to yield % activity, plotted against compound concentration, and fit to a four-parameter equation to determine the IC50 for each compound.

CDK2/Cyclin E1 [2] = target: T1, CDK2/Cyclin E1; assay: Caliper Assay (LabChip EZ Reader mobility shift assay), inhibition of CDK2/Cyclin E1 activity; format: biochemical; details: 2.5 nM CDK2/Cyclin E1(14-475), 100 μM ATP, 30 min preincubation; read-out: Caliper Assay (CDK2/CCNE1): IC50
How it was run: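 Compounds were preincubated 30 min with CDK2/Cyclin E1(14-475), then run for 100 min with 2.5 nM enzyme, 100 μM ATP and 1.5 μM 5-FAM-QSPKKG peptide in HEPES pH 7.5 (final). Reactions were EDTA-stopped and substrate-to-product conversion read by mobility shift. IC50 came from a four-parameter fit.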

Kuramochi cells = assay: IncuCyte Kuramochi Assay (cell proliferation); format: cell-based; details: Kuramochi cells labeled with mApple-H2B, cell count, read-out: IncuCyte - Kuramochi RB-WT: IC50
How it was run: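 Cells imaged at 0 and 72 h after compound treatment (10 points, ½ log dilution, 20 μM top), with fluorescent nuclei counted. Fold change in count was normalized to DMSO wells and fitted to dose-response curves to give GI50.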

| IC50 (CDK2/Cyclin E1 [1]) [µM] | IC50 (CDK2/Cyclin E1 [2]) [µM] | Structure (SMILES) | IC50 (Kuramochi cells; 72 hours) [µM] | IC50 (Kuramochi cells; 72 h) [µM] |
| --- | --- | --- | --- | --- |
| 0.5 to 5 |  | CC(c1nc(C2CN(C(=O)c3cnn(Cc4ccc(C#N)cc4C(=O)O)c3)CC23CN(C(=O)C2(C(F)(F)F)CC2)C3)no1)n1ccc(C2(C(F)(F)F)CC2)n1 (stereo not shown) [I-214] |  | > 10 |
| 0.5 to 5 |  | COC(=O)c1cc(C#N)ccc1Cn1cc(C(=O)N2CC(c3noc(C(C)n4ccc(C5(C(F)(F)F)CC5)n4)n3)C3(C2)CN(C(=O)C2(C(F)(F)F)CC2)C3)cn1 (stereo not shown) [I-215] |  | 5 to 10 |
| ≤ 0.5 |  | O=C(c1cnn(Cc2ccc(C(F)(F)F)cc2)c1)N1CC(c2nnc(C(C(=O)N3CCC(c4nccs4)CC3)c3ccc(C4CCOCC4)cc3)o2)C2(C1)CN(C(=O)C1(C(F)(F)F)CC1)C2 (stereo not shown) [I-216, 2-(4-(tetrahydro-2H-pyran-4-yl)phenyl)-1-(4-(thiazol-2-yl)piperidin-1-yl)-2-(5-(6-(1-(4-(trifluoromethyl)benzyl)-1H-pyrazole-4-carbonyl)-2-(1-(trifluoromethyl)cyclopropane-1-carbonyl)-2,6-diazaspiro[3.4]octan-8-yl)-1,3,4-oxadiazol-2-yl)ethan-1-one] |  | 0.5 to 5 |
| 0.5 to 5 |  | CC(c1nc(C2CN(C(=O)c3cnn(Cc4ccc(C(F)(F)F)cc4)c3)CC23CN(C(=O)C2(C(F)(F)F)CC2)C3)no1)n1ccc(C23CCC(CC2)OC3)n1 (stereo not shown) [I-217, (8-(5-(1-(3-(2-oxabicyclo[2.2.2]octan-4-yl)-1H-pyrazol-1-yl)ethyl)-1,2,4-oxadiazol-3-yl)-2-(1-(trifluoromethyl)cyclopropane-1-carbonyl)-2,6-diazaspiro[3.4]octan-6-yl)(1-(4-(trifluoromethyl)benzyl)-1H-pyrazol-4-yl)methanone] |  | 5 to 10 |
| > 10 |  | CC(c1nc(C2CN(C(=O)c3cnn(Cc4ccc(C(F)(F)F)cc4C(=O)O)c3)CC23CN(C(=O)C2(C(F)(F)F)CC2)C3)no1)n1ccc(C2(C(F)(F)F)CC2)n1 (stereo not shown) [I-218, 5-(trifluoromethyl)-2-((4-(2-(1-(trifluoromethyl)cyclopropane-1-carbonyl)-8-(5-(1-(3-(1-(trifluoromethyl)cyclopropyl)-1H-pyrazol-1-yl)ethyl)-1,2,4-oxadiazol-3-yl)-2,6-diazaspiro[3.4]octane-6-carbonyl)-1H-pyrazol-1-yl)methyl)benzoic acid] |  | > 10 |
| > 10 |  | COC(=O)c1cc(C(F)(F)F)ccc1Cn1cc(C(=O)N2CC(c3noc(C(C)n4ccc(C5(C(F)(F)F)CC5)n4)n3)C3(C2)CN(C(=O)C2(C(F)(F)F)CC2)C3)cn1 (stereo not shown) [I-219, methyl 5-(trifluoromethyl)-2-((4-(2-(1-(trifluoromethyl)cyclopropane-1-carbonyl)-8-(5-(1-(3-(1-(trifluoromethyl)cyclopropyl)-1H-pyrazol-1-yl)ethyl)-1,2,4-oxadiazol-3-yl)-2,6-diazaspiro[3.4]octane-6-carbonyl)-1H-pyrazol-1-yl)methyl)benzoate] |  | > 10 |
| 0.5 to 5 |  | CC(c1nc(C2CN(C(=O)c3cnn(Cc4ccccc4C(=O)O)c3)CC23CN(C(=O)C2(C(F)(F)F)CC2)C3)no1)n1ccc(C2(C(F)(F)F)CC2)n1 (stereo not shown) [I-220, 2-((4-(2-(1-(trifluoromethyl)cyclopropane-1-carbonyl)-8-(5-(1-(3-(1-(trifluoromethyl)cyclopropyl)-1H-pyrazol-1-yl)ethyl)-1,2,4-oxadiazol-3-yl)-2,6-diazaspiro[3.4]octane-6-carbonyl)-1H-pyrazol-1-yl)methyl)benzoic acid] |  | > 10 |
| 0.5 to 5 |  | CC1(C)C[C@@H]1C(=O)N1CC2(CN(C(=O)c3cncs3)CC2c2nc3ccc(Oc4ccccc4-c4cncs4)cc3o2)C1 (stereo partly drawn) [I-221, (2-((S)-2,2-dimethylcyclopropane-1-carbonyl)-8-(6-(2-(thiazol-5-yl)phenoxy)benzo[d]oxazol-2-yl)-2,6-diazaspiro[3.4]octan-6-yl)(thiazol-5-yl)methanone] |  | 5 to 10 |
| > 10 |  | COC(=O)c1ccccc1Cn1cc(C(=O)N2CC(c3noc(C(C)n4ccc(C5(C(F)(F)F)CC5)n4)n3)C3(C2)CN(C(=O)C2(C(F)(F)F)CC2)C3)cn1 (stereo not shown) [I-222] |  | > 10 |
| > 10 |  | CC(c1nc(C2CN(C(=O)c3cnn(Cc4ccc(C(F)(F)F)cc4)c3)CC23CN(C(=O)C2(C(F)(F)F)CC2)C3)no1)n1ccc(C2(C(F)(F)F)CC2)n1 (stereo not shown) [I-223, (1-(4-(trifluoromethyl)benzyl)-1H-pyrazol-4-yl)(2-(1-(trifluoromethyl)cyclopropane-1-carbonyl)-8-(5-(1-(3-(1-(trifluoromethyl)cyclopropyl)-1H-pyrazol-1-yl)ethyl)-1,2,4-oxadiazol-3-yl)-2,6-diazaspiro[3.4]octan-6-yl)methanone] |  | 5 to 10 |
| > 10 |  | Cc1nc(C(=O)N2C[C@H](c3noc(C(C)n4ccc(C5CCOCC5)n4)n3)C3(C2)CN(C(=O)C2(C(F)(F)F)CC2)C3)cnc1O (stereo partly drawn) [I-224, (5-hydroxy-6-methylpyrazin-2-yl)((8R)-8-(5-(1-(3-(tetrahydro-2H-pyran-4-yl)-1H-pyrazol-1-yl)ethyl)-1,2,4-oxadiazol-3-yl)-2-(1-(trifluoromethyl)cyclopropanecarbonyl)-2,6-diazaspiro[3.4]octan-6-yl)methanone] |  | > 10 |
| 5 to 10 |  | CC(c1nc(C2CN(C(=O)c3cnc(O)c(C(F)(F)F)n3)CC23CN(C(=O)C2(C(F)(F)F)CC2)C3)no1)n1ccc(C2CCOCC2)n1 (stereo not shown) [I-225, (5-Hydroxy-6-(trifluoromethyl)pyrazin-2-yl)(8-(5-(1-(3-(tetrahydro-2H-pyran-4-yl)-1H-pyrazol-1-yl)ethyl)-1,2,4-oxadiazol-3-yl)-2-(1-(trifluoromethyl)cyclopropane-1-carbonyl)-2,6-diazaspiro[3.4]octan-6-yl)methanone] |  | > 10 |

More lines, now with the values behind:

| Structure (SMILES) | IC50 (CDK2/Cyclin E1 [1]) [µM] | IC50 (CDK2/Cyclin E1 [2]) [µM] | IC50 (Kuramochi cells; 72 hours) [µM] | IC50 (Kuramochi cells; 72 h) [µM] |
| --- | --- | --- | --- | --- |
| CC(c1nc(C2CN(C(=O)c3cncs3)CC23CN(C(=O)[C@H]2CC2(C)C)C3)no1)n1ccc(C2CCCC2)n1 (single isomer, unassigned) [I-36 2nd] | > 10 | 1 to 10 | > 10 |  |
| CC(c1nc(C2CN(C(=O)c3cncs3)CC23CN(C(=O)[C@H]2CC2(C)C)C3)no1)n1ccc(C2CCCC2)n1 (single isomer, unassigned) [I-36 3rd] | ≤ 0.5 | 0.01 to 0.1 | > 10 |  |
| CC1(C)C[C@@H]1C(=O)N1CC2(CN(C(=O)c3cnccn3)CC2c2nnc(C(F)(F)c3ccc(Cl)c(Cl)c3)o2)C1 (single isomer, unassigned) [I-45 2nd] | > 10 | 0.1 to 1 | > 10 |  |
| CC1(C)C[C@@H]1C(=O)N1CC2(CN(C(=O)c3cnn(Cc4ccccc4)c3)C[C@H]2c2nnc(Cc3ccc(Cl)c(Cl)c3)o2)C1 [I-15, (1-benzyl-1H-pyrazol-4-yl)((S)-8-(5-(3,4-dichlorobenzyl)-1,3,4-oxadiazol-2-yl)-2-((S)-2,2-dimethylcyclopropane-1-carbonyl)-2,6-diazaspiro[3.4]octan-6-yl)methanone] | 0.5 to 5 | 0.01 to 0.1 |  | 5 to 10 |
| CC1(C)C[C@@H]1C(=O)N1CC2(CN(C(=O)c3cncs3)CC2c2nnc(C(F)(F)c3ccc(Cl)c(Cl)c3)o2)C1 (stereo partly shown) [I-32] | 0.5 to 5 | 0.1 to 1 |  | > 10 |
| COc1ccc(COc2cncc(C(=O)N3CC(c4nnc(C(F)(F)c5ccc(Cl)c(Cl)c5)o4)C4(C3)CN(C(=O)[C@H]3CC3(F)F)C4)n2)cc1 (stereo partly shown) [I-125] | > 100 | > 100 |  | > 10 |
| CC(c1nc(C2CN(C(=O)c3cnn(Cc4ccc(C(=O)O)nc4)c3)CC23CN(C(=O)[C@H]2CC2(C)C)C3)no1)n1ccc(C2CCCC2)n1 (stereo partly shown) [I-126] | > 10 | 0.1 to 1 |  | > 10 |
| CC(c1nc(C2CN(C(=O)c3cnn(Cc4ccc(C(=O)O)cc4)c3)CC23CN(C(=O)[C@H]2CC2(C)C)C3)no1)n1ccc(C2CCCC2)n1 (stereo partly shown) [I-127] | 5 to 10 | 0.1 to 1 |  | > 10 |
| CC(c1nc(C2CN(C(=O)c3cnn(Cc4ccc(C#N)cc4)c3)CC23CN(C(=O)C2(C(F)(F)F)CC2)C3)no1)n1ccc(C2CCC(F)(F)CC2)n1 (stereo not shown) [I-210] | 0.5 to 5 |  |  | ≤ 0.5 |
| O=C(c1cnn(Cc2ccc(C(F)(F)F)cc2)c1)N1CC(c2noc(N(Cc3ccc(Cl)c(Cl)c3)CC3CCOCC3)n2)C2(C1)CN(C(=O)C1(C(F)(F)F)CC1)C2 (stereo not shown) [I-213, (8-(5-((3,4-dichlorobenzyl)((tetrahydro-2H-pyran-4-yl)methyl)amino)-1,2,4-oxadiazol-3-yl)-2-(1-(trifluoromethyl)cyclopropane-1-carbonyl)-2,6-diazaspiro[3.4]octan-6-yl)(1-(4-(trifluoromethyl)benzyl)-1H-pyrazol-4-yl)methanone] | > 10 |  |  | 5 to 10 |
